Measured values: patent US12060347B2 (BRISTOL-MYERS SQUIBB COMPANY, priority 2016, dated 2024)

target: T1, human PAR4 (Homo sapiens, UniProt Q96RI0); experiment: PAR4 FLIPR assay: antagonism of agonist-peptide-induced calcium mobilization in PAR4-expressing HEK293 cells; format: cell-based; details: H-Ala-Phe(4-F)-[…]NH2-induced intracellular calcium mobilization, 11-point curves
T1 construct: expressed in transfected cells; host or cells: HEK293 PAR4 Clone 1.2A (BMS Arctic ID 383940)
T1 sequence (Q96RI0 18-385): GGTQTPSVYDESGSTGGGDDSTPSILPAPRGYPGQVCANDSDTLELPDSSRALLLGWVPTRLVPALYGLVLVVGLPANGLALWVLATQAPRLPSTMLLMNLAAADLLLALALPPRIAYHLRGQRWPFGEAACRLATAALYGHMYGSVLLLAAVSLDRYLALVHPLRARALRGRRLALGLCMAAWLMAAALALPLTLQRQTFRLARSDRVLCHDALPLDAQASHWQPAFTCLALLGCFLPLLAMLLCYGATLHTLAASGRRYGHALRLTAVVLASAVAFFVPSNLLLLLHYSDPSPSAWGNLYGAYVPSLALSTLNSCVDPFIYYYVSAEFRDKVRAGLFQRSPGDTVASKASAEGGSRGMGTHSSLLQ

IC50 [nM]	Compound
7	CCCc1ncc(NC(=O)O[C@H](C)[C@H](C)Oc2cc3sc(-c4cc(C)cc5nc(OC)cnc45)nc3cc2F)cn1 [Example 414, (2R,3S)-3-((5-fluoro-2-(2-methoxy-7-methylquinoxalin-5-yl)benzo[d]thiazol-6-yl)oxy)butan-2-yl (2-propylpyrimidin-5-yl)carbamate]
3.1	COc1cnc2c(-c3nc4cc(F)c(O[C@@H](C)[C@@H](C)OC(=O)Nc5cnc(C(F)(F)F)nc5)cc4s3)cc(C)cc2n1 [Example 415, (2R,3S)-3-((5-fluoro-2-(2-methoxy-7-methylquinoxalin-5-yl)benzo[d]thiazol-6-yl)oxy)butan-2-yl (2-(trifluoromethyl)pyrimidin-5-yl)carbamate]
32	COc1cnc2c(-c3nc4cc(F)c(O[C@@H](C)[C@@H](C)OC(=O)Nc5ccc(C)nn5)cc4s3)cc(C)cc2n1 [Example 416, (2R,3S)-3-((5-fluoro-2-(2-methoxy-7-methylquinoxalin-5-yl)benzo[d]thiazol-6-yl)oxy)butan-2-yl (6-methylpyridazin-3-yl)carbamate]
11	COc1cnc2c(-c3nc4cc(F)c(O[C@@H](C)[C@@H](C)OC(=O)Nc5cnc(C)cn5)cc4s3)cc(C)cc2n1 [Example 417, (2R,3S)-3-((5-fluoro-2-(2-methoxy-7-methylquinoxalin-5-yl)benzo[d]thiazol-6-yl)oxy)butan-2-yl (5-methylpyrazin-2-yl)carbamate]
1.3	COc1cnc2c(-c3nc4cc(F)c(O[C@@H](C)[C@@H](C)OC(=O)Nc5cnnc(C)c5)cc4s3)cc(C)cc2n1 [Example 418, (2R,3S)-3-((5-fluoro-2-(2-methoxy-7-methylquinoxalin-5-yl)benzo[d]thiazol-6-yl)oxy)butan-2-yl (6-methylpyridazin-4-yl)carbamate]
2	COc1cnc2c(-c3nc4cc(F)c(O[C@@H](C)[C@@H](C)OC(=O)Nc5cncc(C)c5)cc4s3)cc(C)cc2n1 [Example 419, (2R,3S)-3-((5-fluoro-2-(2-methoxy-7-methylquinoxalin-5-yl)benzo[d]thiazol-6-yl)oxy)butan-2-yl (5-methylpyridin-3-yl)carbamate]
2.2	COc1cncc(NC(=O)O[C@H](C)[C@H](C)Oc2cc3sc(-c4cc(C)cc5nc(OC)cnc45)nc3cc2F)c1 [Example 420, (2R,3S)-3-((5-fluoro-2-(2-methoxy-7-methylquinoxalin-5-yl)benzo[d]thiazol-6-yl)oxy)butan-2-yl (5-methoxypyridin-3-yl)carbamate]
1.8	COc1cnc2c(-c3nc4cc(F)c(O[C@@H](C)[C@@H](C)OC(=O)Nc5cncc(C#N)c5)cc4s3)cc(C)cc2n1 [Example 421, (2R,3S)-3-((5-fluoro-2-(2-methoxy-7-methylquinoxalin-5-yl)benzo[d]thiazol-6-yl)oxy)butan-2-yl (5-cyanopyridin-3-yl)carbamate]
2.2	COc1cnc2c(-c3nc4cc(F)c(O[C@@H](C)[C@@H](C)OC(=O)Nc5cnc(OC)c(C)c5)cc4s3)cc(C)cc2n1 [Example 422, (2R,3S)-3-((5-fluoro-2-(2-methoxy-7-methylquinoxalin-5-yl)benzo[d]thiazol-6-yl)oxy)butan-2-yl (6-methoxy-5-methylpyridin-3-yl)carbamate]
4.2	COc1cnc2c(-c3nc4cc(F)c(O[C@@H](C)[C@@H](C)OC(=O)Nc5cccnc5)cc4s3)cc(C)cc2n1 [Example 423, (2R,3S)-3-((5-fluoro-2-(2-methoxy-7-methylquinoxalin-5-yl)benzo[d]thiazol-6-yl)oxy)butan-2-yl pyridin-3-ylcarbamate]
5.4	COc1cnc2c(-c3nc4cc(F)c(O[C@@H](C)[C@@H](C)OC(=O)Nc5ccc(C(=O)N6CCOCC6)nc5)cc4s3)cc(C)cc2n1 [Example 426, (2R,3S)-3-((5-fluoro-2-(2-methoxy-7-methylquinoxalin-5-yl)benzo[d]thiazol-6-yl)oxy)butan-2-yl (6-(morpholine-4-carbonyl)pyridin-3-yl)carbamate]
7.6	COc1cnc2c(-c3nc4c(Cl)c(F)c(OC[C@@H](C)OC(=O)Nc5ccnc(C(N)=O)c5)cc4s3)cc(C)cc2n1 [Example 427, (R)-1-((4-chloro-5-fluoro-2-(2-methoxy-7-methylquinoxalin-5-yl)benzo[d]thiazol-6-yl)oxy)propan-2-yl (2-carbamoylpyridin-4-yl)carbamate]
5.9	CNC(=O)c1cc(NC(=O)O[C@H](C)COc2cc3sc(-c4cc(C)cc5nc(OC)cnc45)nc3c(Cl)c2F)ccn1 [Example 428, (R)-1-((4-chloro-5-fluoro-2-(2-methoxy-7-methylquinoxalin-5-yl)benzo[d]thiazol-6-yl)oxy)propan-2-yl (2-(methyl carbamoyl)pyridin-4-yl)carbamate]
0.5	COc1cnc2c(-c3nc4cc(F)c(OC[C@@H](C)OC(=O)Nc5cnc(C(N)=O)nc5)cc4s3)cc(C)cc2n1 [Example 429, (R)-1-((5-fluoro-2-(2-methoxy-7-methylquinoxalin-5-yl)benzo[d]thiazol-6-yl)oxy)propan-2-yl (2-carbamoylpyrimidin-5-yl)carbamate]
0.9	CNC(=O)c1ncc(NC(=O)O[C@H](C)COc2cc3sc(-c4cc(C)cc5nc(OC)cnc45)nc3cc2F)cn1 [Example 430, (R)-1-((5-fluoro-2-(2-methoxy-7-methylquinoxalin-5-yl)benzo[d]thiazol-6-yl)oxy)propan-2-yl (2-(methylcarbamoyl)pyrimidin-5-yl)carbamate]
1.1	COc1cnc2c(-c3nc4cc(F)c(OC[C@@H](C)OC(=O)Nc5cnc(C(=O)N(C)C)nc5)cc4s3)cc(C)cc2n1 [Example 431, (R)-1-((5-fluoro-2-(2-methoxy-7-methylquinoxalin-5-yl)benzo[d]thiazol-6-yl)oxy)propan-2-yl (2-(dimethylcarbamoyl)pyrimidin-5-yl)carbamate]
0.4	CNC(=O)c1ccc(NC(=O)O[C@H](C)COc2cc3sc(-c4cc(C)cc5nc(OC)cnc45)nc3cc2F)cn1 [Example 432, (R)-1-((5-fluoro-2-(2-methoxy-7-methylquinoxalin-5-yl)benzo[d]thiazol-6-yl)oxy)propan-2-yl (6-(methylcarbamoyl)pyridin-3-yl)carbamate]
0.6	COc1cnc2c(-c3nc4cc(F)c(OC[C@@H](C)OC(=O)Nc5ccc(C(N)=O)nc5)cc4s3)cc(C)cc2n1 [Example 433, (R)-1-((5-fluoro-2-(2-methoxy-7-methylquinoxalin-5-yl)benzo[d]thiazol-6-yl)oxy)propan-2-yl (6-carbamoylpyridin-3-yl)carbamate]
1.4	COc1cnc2c(-c3nc4cc(F)c(OC[C@@H](C)OC(=O)Nc5ccc(C(N)=O)nc5)cc4s3)cc(C)cc2n1 [Example 434, (R)-1-((5-fluoro-2-(2-methoxy-7-methylquinoxalin-5-yl)benzo[d]thiazol-6-yl)oxy)propan-2-yl (6-carbamoylpyridin-3-yl)carbamate]
0.9	COc1cnc2c(-c3nc4cc(F)c(OC[C@@H](C)OC(=O)Nc5ccc(C(=O)N6CCOCC6)nc5)cc4s3)cc(C)cc2n1 [Example 435, (R)-1-((5-fluoro-2-(2-methoxy-7-methylquinoxalin-5-yl)benzo[d]thiazol-6-yl)oxy)propan-2-yl (6-(morpholine-4-carbonyl)pyridin-3-yl)carbamate]
1.5	CNC(=O)c1ccc(NC(=O)O[C@H](C)[C@H](C)Oc2cc3sc(-c4cc(C)cc5nc(OC)cnc45)nc3cc2F)cn1 [Example 436, (2R,3S)-3-((5-fluoro-2-(2-methoxy-7-methylquinoxalin-5-yl)benzo[d]thiazol-6-yl)oxy)butan-2-yl (6-(methylcarbamoyl)pyridin-3-yl)carbamate]
4.9	COc1cnc2c(-c3nc4cc(F)c(O[C@@H](C)[C@@H](C)OC(=O)Nc5cnc(C(=O)N6CCOCC6)nc5)cc4s3)cc(C)cc2n1 [Example 437, (2R,3S)-3-((5-fluoro-2-(2-methoxy-7-methylquinoxalin-5-yl)benzo[d]thiazol-6-yl)oxy)butan-2-yl (2-(morpholine-4-carbonyl)pyrimidin-5-yl)carbamate]
1.9	COc1cnc2c(-c3nc4cc(F)c(O[C@@H](C)[C@@H](C)OC(=O)Nc5ccc(C(=O)N(C)C)nc5)cc4s3)cc(C)cc2n1 [Example 438, (2R,3S)-3-((5-fluoro-2-(2-methoxy-7-methylquinoxalin-5-yl)benzo[d]thiazol-6-yl)oxy)butan-2-yl (6-(dimethylcarbamoyl)pyridin-3-yl)carbamate]
0.9	COc1cnc2c(-c3nc4cc(F)c(O[C@@H](C)[C@@H](C)OC(=O)Nc5ccc(C(=O)NC[C@@H](C)O)nc5)cc4s3)cc(C)cc2n1 [Example 439, (2R,3S)-3-((5-fluoro-2-(2-methoxy-7-methylquinoxalin-5-yl)benzo[d]thiazol-6-yl)oxy)butan-2-yl (6-(((R)-2-hydroxypropyl)carbamoyl)pyridin-3-yl)carbamate]
0.8	CNC(=O)c1ncc(NC(=O)O[C@H](C)[C@H](C)Oc2cc3sc(-c4cc(C)cc5nc(OC)cnc45)nc3cc2F)cn1 [Example 440, (2R,3S)-3-((5-fluoro-2-(2-methoxy-7-methylquinoxalin-5-yl)benzo[d]thiazol-6-yl)oxy)butan-2-yl (2-(methylcarbamoyl)pyrimidin-5-yl)carbamate]
0.9	COc1cnc2c(-c3nc4cc(F)c(O[C@@H](C)[C@@H](C)OC(=O)Nc5ccc(C(=O)NC[C@H](C)O)nc5)cc4s3)cc(C)cc2n1 [Example 441, (2R,3S)-3-((5-fluoro-2-(2-methoxy-7-methylquinoxalin-5-yl)benzo[d]thiazol-6-yl)oxy)butan-2-yl (6-(((S)-2-hydroxypropyl)carbamoyl)pyridin-3-yl)carbamate]
